Peptide text beside a SMILES is read from it.
Key:
[1] = molecular target: T1, human amylin 3(a) receptor (human calcitonin receptor + RAMP-3), BHK570 cells (Homo sapiens, UniProt O60896+P30988); assay: Assay (II)b functional CRE-luciferase assay without albumin, human amylin receptor; format: cell-based; conditions: Tested without HSA; read-out: hAmylin-R funct. EC50
T1 construct: host or cells: BHK570
From the text: (§1) Assay(II)b—Human Calcitonin and Amylin Receptor Assay without Albumin
(§2) 1. Luciferase Assay Outline
(§3) Activation of calcitonin and amylin (co-expression of calcitonin receptor and receptor activity modifying proteins (RAMP)) receptors lead to increased intracellular concentrations of cAMP. Consequently, transcription is activated by promoters containing multiple copies of the cAMP response element (CRE). It is thus possible to measure amylin activity by the use of a CRE luciferase reporter gene introduced into BHK cells also expressing calcitonin or amylin receptors.
(§4) 2. Construction of Calcitonin (a)—and Amylin 3(a)—Receptor/CRE-Luc Cell Line.
(§5) A BHK570 cell line was stably transfected with the human calcitonin receptor and a CRE-responsive luciferase reporter gene (Hollex-1 cell line, obtained from ZymoGenetics described in U.S. Pat. No. 5,622,839). The cell line was further transfected with RAMP-3, using standard methods. This turns the calcitonin receptor into an amylin 3(a) receptor. Methotrexate, Neomycin, and Hygromycin are selection markers for luciferase, the calcitonin receptor, and RAMP-3, respectively. To prepare the batches of frozen cells used in the luciferase assay described in the section below, the cells were cultured in growth medium (DMEM with 10% FBS, 1% Pen/Strep and 1 mM Napyruvate). […] Cells at approximately 80-90% confluence were washed with PBS and loosened from the plates with Versene. After centrifugation (2 min, 1300 rpm, in a Centrion Scientific centriuge C2 series with a BRK 5510 rotor head), the cell pellet was dissolved in 10% DMSO, 30% FBS and 60% growth medium and frozen (−80° C.) until utilization.
(§6) The day before the experiment, BHK calcitonin (a) receptor- or amylin 3(a)-receptor/CRE-luc cells were thawed, washed twice, and seeded in 40 μl growth medium on white 384 well culture plates (4.000 cells/well). On the assay day, the cells were washed 3 times in assay media (Dulbecco media W/o phenol red, 500 ml (Gibco, 11880-028); 0.1% ovalbumin; 10 mM Hepes pH 7.4; 1× Glutamin; 1% Pen/Strep). Then, 30 μl/well of sample diluted in assay buffer was added. After 3 hours of incubation at 37° C. and 5% CO2, the reaction was terminated by adding 30 μl/well SteadyLite Plus™. The plates were shaken at 300 rpm for 5 min at RT. Then, the plates were sealed and incubated at room temperature for 30 minutes. Finally, luminescence was tested on a TopCounter (Packard) in SPC (single photon counting) mode.
(§7) Additional Comment Regarding Use of Data Retrieved Via this Method
(§8) For the same reasons, measurements made in Assay IIa should not be compared in Assay IIb.

[2] = molecular target: T2, human calcitonin (a) receptor, BHK570 cells (Homo sapiens, UniProt P30988); assay: Assay (II)b functional CRE-luciferase assay without albumin, human calcitonin receptor; format: cell-based; conditions: Tested without HSA; read-out: hCTR funct. EC50
T2 construct: host or cells: BHK570
T2 sequence (P30988 25-474): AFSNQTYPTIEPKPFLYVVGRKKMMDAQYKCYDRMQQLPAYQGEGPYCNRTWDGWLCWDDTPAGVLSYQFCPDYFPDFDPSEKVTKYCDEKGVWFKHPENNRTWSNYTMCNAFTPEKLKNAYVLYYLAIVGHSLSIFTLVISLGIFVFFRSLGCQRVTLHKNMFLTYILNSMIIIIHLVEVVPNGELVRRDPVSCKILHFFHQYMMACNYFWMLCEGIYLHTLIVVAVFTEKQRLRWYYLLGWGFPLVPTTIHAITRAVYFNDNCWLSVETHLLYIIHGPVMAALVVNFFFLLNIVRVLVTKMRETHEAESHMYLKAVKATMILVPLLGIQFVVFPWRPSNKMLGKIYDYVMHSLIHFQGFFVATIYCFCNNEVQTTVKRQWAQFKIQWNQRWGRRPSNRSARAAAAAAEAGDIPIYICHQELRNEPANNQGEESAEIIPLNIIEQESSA
From the text: as §1, §2, §3, §4, §5, §6, §7, §8

[3] = molecular target: T3, human amylin receptor (human calcitonin receptor + human RAMP3), BHK tk'ts 13 cells (Homo sapiens, UniProt O60896+P30988); assay: Assay (Va) binding to the human amylin receptor (whole cell); conditions: read-out: hAmylin-R binding IC50
T3 construct: expressed in transfected cells; host or cells: BHK tk'ts 13
T3 sequence (O60896 24-148, one chain of several): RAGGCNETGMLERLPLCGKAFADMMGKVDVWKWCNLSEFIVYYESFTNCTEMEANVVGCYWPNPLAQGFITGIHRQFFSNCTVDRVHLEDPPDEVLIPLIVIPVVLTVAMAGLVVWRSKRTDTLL
Procedure: The day before the assay the cells were Seeded into Poly-D-Lysin coated 384W Opaque White, BD BioCoat plates (10000 cells/well) and Incubated overnight at 37° C., 5% CO2, 95% humidity.

T1 sequence (O60896 24-148, one chain of several): as above

SMILES	EC50 [1]	EC50 [2]	IC50 [3]
CC(C)C[C@H](NC(=O)[C@H](CCC(=O)O)NC(=O)[C@H](Cc1c[nH]cn1)NC(=O)[C@H](CC(C)C)NC(=O)[C@H](CCC(=O)O)NC(=O)[C@H](C)NC(=O)[C@H](CO)NC(=O)[C@H](CC(C)C)NC(=O)[C@H](CCCNC(=N)N)NC(=O)CNC(=O)[C@H](CC(C)C)NC(=O)[C@@H](NC(=O)[C@H](C)NC(=O)[C@@H](NC(=O)[C@@H](NC(=O)[C@H](CC(C)C)NC(=O)[C@H](CCC(=O)O)NC(=O)[C@H](CO)NC(=O)[C@H](C)N)[C@@H](C)O)[C@@H](C)O)C(C)C)C(=O)N[C@@H](C)C(=O)N[C@H](C(=O)N[C@@H](CC(C)C)C(=O)N1CCC[C@H]1C(=O)N[C@@H](CCCNC(=N)N)C(=O)N[C@H](C(=O)N[C@@H](CCC(=O)O)C(=O)N[C@H](C(=O)NCC(=O)N[C@H](C(=O)NCC(=O)N[C@H](C(=O)N1CCC[C@H]1C(N)=O)[C@@H](C)O)[C@@H](C)O)[C@@H](C)O)[C@@H](C)O)[C@@H](C)O [95bb, H—ASELTTAVLGRLSAELHELATLPRTETGTGTP—NH2] (H-ASELTTAVLGRLSAELHELATLPRTETGTGTP-NH2)	46 pM	9 pM	20200 pM
CC(C)C[C@H](NC(=O)[C@H](CCC(=O)O)NC(=O)[C@H](Cc1c[nH]cn1)NC(=O)[C@H](CC(C)C)NC(=O)[C@H](CCC(=O)O)NC(=O)[C@H](C)NC(=O)[C@H](CO)NC(=O)[C@H](CC(C)C)NC(=O)[C@H](CCCNC(=N)N)NC(=O)CNC(=O)[C@H](CC(C)C)NC(=O)[C@@H](NC(=O)[C@H](C)NC(=O)[C@@H](NC(=O)[C@H](CO)NC(=O)[C@@H](NC(=O)[C@H](CCC(=O)O)NC(=O)[C@H](CO)NC(=O)[C@H](C)N)C(C)C)[C@@H](C)O)C(C)C)C(=O)N[C@@H](C)C(=O)N[C@H](C(=O)N[C@@H](CC(C)C)C(=O)N1CCC[C@H]1C(=O)N[C@@H](CCCNC(=N)N)C(=O)N[C@H](C(=O)N[C@@H](CCC(=O)O)C(=O)N[C@H](C(=O)NCC(=O)N[C@@H](CO)C(=O)NCC(=O)N[C@@H](CO)C(=O)N1CCC[C@H]1C(N)=O)[C@@H](C)O)[C@@H](C)O)[C@@H](C)O [86bb, H—ASEVSTAVLGRLSAELHELATLPRTETGSGSP—NH2] (H-ASEVSTAVLGRLSAELHELATLPRTETGSGSP-NH2)	7 pM	2 pM	982 pM
CC(C)C[C@H](NC(=O)CNC(=O)[C@H](CO)NC(=O)[C@H](C)N)C(=O)N[C@@H](CO)C(=O)N[C@H](C(=O)N[C@@H](C)C(=O)N[C@H](C(=O)N[C@@H](CC(C)C)C(=O)NCC(=O)N[C@@H](CCCNC(=N)N)C(=O)N[C@@H](CC(C)C)C(=O)N[C@@H](CO)C(=O)N[C@@H](CCC(N)=O)C(=O)N[C@@H](CCC(=O)O)C(=O)N[C@@H](CC(C)C)C(=O)N[C@@H](Cc1c[nH]cn1)C(=O)N[C@@H](CCC(=O)O)C(=O)N[C@@H](CC(C)C)C(=O)N[C@@H](CCC(N)=O)C(=O)N[C@H](C(=O)N[C@@H](Cc1ccc(O)cc1)C(=O)N1CCC[C@H]1C(=O)N[C@@H](CCCNC(=N)N)C(=O)N[C@H](C(=O)N[C@@H](CCC(=O)O)C(=O)N[C@H](C(=O)NCC(=O)N[C@@H](CO)C(=O)NCC(=O)N[C@H](C(=O)N[C@@H](Cc1ccc(O)cc1)C(N)=O)[C@@H](C)O)[C@@H](C)O)[C@@H](C)O)[C@@H](C)O)C(C)C)[C@@H](C)O [118bb, [des1, 4G, 9V, 15Q, 21Q, 23Y, 30S, 31G, 32T, 33Y]mimylin]	8 pM	4 pM	–
CC(C)C[C@H](NC(=O)[C@H](CCCNC(=N)N)NC(=O)CNC(=O)[C@H](CC(C)C)NC(=O)[C@@H](NC(=O)[C@H](C)NC(=O)[C@@H](NC(=O)[C@@H](NC(=O)[C@H](CC(C)C)NC(=O)[C@H](CCC(=O)O)NC(=O)[C@H](CO)NC(=O)[C@H](C)N)[C@@H](C)O)[C@@H](C)O)C(C)C)C(=O)N[C@@H](CCC(=O)O)C(=O)N[C@@H](C)C(=O)N[C@@H](CCC(=O)O)C(=O)N[C@@H](CC(C)C)C(=O)N[C@@H](Cc1c[nH]cn1)C(=O)N[C@@H](CCC(=O)O)C(=O)N[C@@H](CC(C)C)C(=O)N[C@H](C(=O)N[C@H](C(=O)N[C@@H](CC(C)C)C(=O)N1CCC[C@H]1C(=O)N[C@@H](CCCNC(=N)N)C(=O)N[C@H](C(=O)N[C@@H](CCC(=O)O)C(=O)N[C@H](C(=O)NCC(=O)N[C@H](C(=O)NCC(=O)N[C@H](C(=O)N1CCC[C@H]1C(N)=O)[C@@H](C)O)[C@@H](C)O)[C@@H](C)O)[C@@H](C)O)[C@@H](C)O)[C@@H](C)O [106bb, H—ASELTTAVLGRLEAELHELTTLPRTETGTGTP—NH2] (H-ASELTTAVLGRLEAELHELTTLPRTETGTGTP-NH2)	–	–	71400 pM

The next lines start with the values.

EC50 [1]	EC50 [2]	IC50 [3]	SMILES
5 pM	4 pM	–	CC(C)C[C@H](NC(=O)CNC(=O)[C@H](CO)NC(=O)[C@H](C)N)C(=O)N[C@@H](CO)C(=O)N[C@H](C(=O)N[C@@H](C)C(=O)N[C@H](C(=O)N[C@@H](CC(C)C)C(=O)NCC(=O)N[C@@H](CCCNC(=N)N)C(=O)N[C@@H](CC(C)C)C(=O)N[C@@H](CO)C(=O)N[C@@H](CCC(N)=O)C(=O)N[C@@H](CCC(=O)O)C(=O)N[C@@H](CC(C)C)C(=O)N[C@@H](Cc1c[nH]cn1)C(=O)N[C@@H](CCC(=O)O)C(=O)N[C@@H](CC(C)C)C(=O)N[C@@H](CCC(N)=O)C(=O)N[C@H](C(=O)N[C@@H](Cc1ccc(O)cc1)C(=O)N1CCC[C@H]1C(=O)N[C@@H](CCCNC(=N)N)C(=O)N[C@H](C(=O)N[C@@H](CCC(=O)O)C(=O)N[C@H](C(=O)NCC(=O)N[C@@H](CO)C(=O)NCC(=O)N[C@H](C(=O)N[C@@H](Cc1ccc(O)cc1)C(N)=O)[C@@H](C)O)[C@@H](C)O)[C@@H](C)O)[C@@H](C)O)[C@@H](C)O)[C@@H](C)O [124bb, [des1, 4G, 9T, 15Q, 21Q, 23Y, 30S, 31G, 32T, 33Y]mimylin] (H-ASGLSTATLGRLSQELHELQTYPRTETGSGTY-NH2; N-terminus and C-terminus assumed)
11 pM	6 pM	1180 pM	CC(C)C[C@H](NC(=O)CNC(=O)[C@H](CO)NC(=O)[C@@H](N)CC(C)C)C(=O)N[C@@H](CO)C(=O)N[C@H](C(=O)N[C@@H](C)C(=O)N[C@H](C(=O)N[C@@H](CC(C)C)C(=O)NCC(=O)N[C@@H](CCCNC(=N)N)C(=O)N[C@@H](CC(C)C)C(=O)N[C@@H](CO)C(=O)N[C@@H](CCC(N)=O)C(=O)N[C@@H](CCC(=O)O)C(=O)N[C@@H](CC(C)C)C(=O)N[C@@H](Cc1c[nH]cn1)C(=O)N[C@@H](CCC(=O)O)C(=O)N[C@@H](CC(C)C)C(=O)N[C@@H](CCC(N)=O)C(=O)N[C@H](C(=O)N[C@@H](Cc1ccc(O)cc1)C(=O)N1CCC[C@H]1C(=O)N[C@@H](CCCNC(=N)N)C(=O)N[C@H](C(=O)N[C@@H](CCC(=O)O)C(=O)N[C@H](C(=O)NCC(=O)N[C@@H](CO)C(=O)N[C@@H](CCC(N)=O)C(=O)N[C@H](C(=O)N[C@@H](Cc1ccc(O)cc1)C(N)=O)[C@@H](C)O)[C@@H](C)O)[C@@H](C)O)[C@@H](C)O)C(C)C)[C@@H](C)O [127bb, H—LSGLSTAVLGRLSQELHELQTYPRTETGSQTY—NH2] (H-LSGLSTAVLGRLSQELHELQTYPRTETGSQTY-NH2)

Source: patent US9593149B2, “Amylin and calcitonin receptor agonist” (Novo Nordisk A/S, priority 2014, dated 2017)
